± gives the expanded uncertainty stated by the source.
Columns and labels:
[1] = Liquid; for mass density: 101.33 kPa; for Normal boiling temperature: Distillation
[2] = refractive index (Na D-line) (dimensionless); conditions: 293.15 K; 101.33 kPa; Liquid; Standard Abbe refractometry

Row | mass density ([1]; 298 K) | Structure (SMILES) | mass density ([1]; 293.15 K) | Normal boiling temperature [1] | refractive index [2]
1 |  | CCCCOC(=O)c1ccccc1C(=O)OCCCC [dibutyl phthalate] | 1046.54 ± 0.79 kg/m3 | 340.1 ± 0.2 °C | 1.49114 ± 0.0007
2 |  | COC(=O)c1ccccc1C(=O)OC [dimethyl 1,2-benzenedicarboxylate] | 1190.53 ± 1.5 kg/m3 | 283.6 ± 0.2 °C | 1.51384 ± 0.0007
3 | 884.35 ± 1 kg/m3 | CCOC(=O)CC [ethyl propanoate] |  | 99.1 ± 0.2 °C | 1.38394 ± 0.0007

Reference: the NIST ThermoML archive (doi:10.1016/j.jct.2007.01.013)
